Experimental findings from publication PMC10112521, “High-throughput AR dimerization assay identifies androgen disrupting chemicals and metabolites” (Frontiers in Toxicology, 2023) are described below.

Where a name gives a salt, the structure may show the parent alone.

The series deals with AR2 cells (HepG2-AR2). Description: Alamar Blue (resazurin) post hoc cell viability / cytotoxicity assay in AR2 cells. Conditions: spid Viability, sheet antagonist_fits; for hill_tp (Hill model top): 0 where win_model is Constant.

Description: For antagonist mode and cytotoxicity data, well-level normalized response (resp) was calculated as: resp=100 * RLU−bval/pval−bval where pval is the median RLU value of the MEC positive control wells (minimum four wells).

As for `Cc1c(COC(=O)[C@@H]2[C@H](/C=C(\Cl)C(F)(F)F)C2(C)C)cccc1-c1ccccc1` (racemic) [Bifenthrin], the “max_med (maximum median response)” value was determined as 19.5548 and the “hill_tp (Hill model top)” value came out at 23.386. `O=C(c1ccccc1)c1ccc(O)cc1O` [2,4-Dihydroxybenzophenone]: the “max_med (maximum median response)” value worked out at 13.9578 and the “hill_tp (Hill model top)” value came out at 7.468. For `CCCCC(CC)COC(=O)c1ccc(O)cc1` (centres unmarked) [2-Ethylhexylparaben], the “max_med (maximum median response)” value was 99.7953 and the “hill_tp (Hill model top)” value was determined as 102.21. On the same counts, the results for `O=S(=O)(c1ccc(O)cc1)c1ccc(O)cc1` [4,4'-Sulfonyldiphenol] are 24.7063 and 39.4827. The matching figures for `CCC(C)(C)c1ccc(O)cc1` [4-(2-Methylbutan-2-yl)phenol]: 17.1743 and 12.5636. The matching figures for `CCCCCCCCCCCCc1ccc(O)cc1` [4-Dodecylphenol]: 99.7202 and 99.8404. Consider `O=C(O)c1ccc(O)cc1` [4-Hydroxybenzoic acid], for which the “max_med (maximum median response)” value is recorded as 5.145 and the “hill_tp (Hill model top)” value worked out at 0.

With `CCCCCCCCCc1ccc(O)cc1` [4-Nonylphenol], the “max_med (maximum median response)” value came out at 99.78 and the “hill_tp (Hill model top)” value is on record as 100.689. The matching figures for `C#C[C@]1(O)CC[C@H]2[C@@H]3CCc4cc(O)ccc4[C@H]3CC[C@@]21C` [17alpha-Ethinylestradiol]: 47.5761 and 60.3321. With `C[C@]12CC[C@@H]3c4ccc(O)cc4CC[C@H]3[C@@H]1CC[C@@H]2O` [17beta-Estradiol], the “max_med (maximum median response)” value was found to be 11.6181 and the “hill_tp (Hill model top)” value was 15.1874.

For `COP(=O)(NC(C)=O)SC` (centres unmarked) [Acephate], the “max_med (maximum median response)” value was determined as 10.7949 and the “hill_tp (Hill model top)” value is on record as 0.

With `CC(C)(C#N)c1cc(Cn2cncn2)cc(C(C)(C)C#N)c1` [Anastrozole], the “max_med (maximum median response)” value is listed as 9.832 and the “hill_tp (Hill model top)” value was determined as 0. Turning to `CCCCN(CC)c1c([N+](=O)[O-])cc(C(F)(F)F)cc1[N+](=O)[O-]` [Benfluralin], the “max_med (maximum median response)” value worked out at 17.0663 and the “hill_tp (Hill model top)” value is 11.4566. The matching figures for `CCCCC(CC)COC(=O)CCCCC(=O)OCC(CC)CCCC` (centres unmarked) [Bis(2-ethylhexyl)hexanedioate]: 8.67 and 0. On the same counts, the results for `CCCCC(CC)COC(=O)c1ccccc1C(=O)OCC(CC)CCCC` (centres unmarked) [Bis(2-ethylhexyl)phthalate] are 27.6798 and 16.491. On the same counts, the results for `N#Cc1c(Cl)c(Cl)c(Cl)c(C#N)c1Cl` [Chlorothalonil] are 85.6054 and 117.241. Regarding `COP(=S)(OC)Oc1nc(Cl)c(Cl)cc1Cl` [Chlorpyrifos-methyl], the “max_med (maximum median response)” value is recorded as 15.7636 and the “hill_tp (Hill model top)” value is reported as 36.973. As for `C[C@]12C[C@H](O)[C@H]3[C@@H](CCC4=CC(=O)CC[C@@]43C)[C@@H]1CC[C@@H]2C(=O)CO` [Corticosterone], the “max_med (maximum median response)” value is recorded as -0.2958. For `O=c1oc2cc(O)ccc2c2oc3cc(O)ccc3c12` [Coumestrol], the “max_med (maximum median response)” value is listed as 39.9111 and the “hill_tp (Hill model top)” value is given as 51.0591. The matching figures for `C#C[C@]1(O)CC[C@H]2[C@@H]3CCC4=Cc5oncc5C[C@]4(C)[C@H]3CC[C@@]21C` [Danazol]: 99.6979 and 119.707. The matching figures for `CCOP(=S)(OCC)Oc1cc(C)nc(C(C)C)n1` [Diazinon]: 6.875 and 0. The matching figures for `O=C1C(Cl)=C(Cl)C(=O)c2ccccc21` [Dichlone, dichlone]: 100 and 121.536. For `Clc1ccc(C(c2ccc(Cl)cc2)C(Cl)(Cl)Cl)cc1` [Dichlorodiphenyltrichloroethane], the “max_med (maximum median response)” value is 73.7925 and the “hill_tp (Hill model top)” value stood at 94.5035.

On to `O=C(OC1CCCCC1)c1ccccc1C(=O)OC1CCCCC1` [Dicyclohexyl phthalate], for which the “max_med (maximum median response)” value is -2.0313. On to `CC/C(=C(/CC)c1ccc(O)cc1)c1ccc(O)cc1` [Diethylstilbestrol], for which the “max_med (maximum median response)” value is 99.7753 and the “hill_tp (Hill model top)” value came to 119.773.

As for `CCCCCCOC(=O)c1ccccc1C(=O)OCCCCCC` [Dihexyl phthalate], the “max_med (maximum median response)” value was 14.953 and the “hill_tp (Hill model top)” value was found to be 18.2229.

Consider `CCCCCOC(=O)c1ccccc1C(=O)OCCCCC` [Dipentyl phthalate], for which the “max_med (maximum median response)” value was found to be 14.047 and the “hill_tp (Hill model top)” value is on record as 13.5743. As to `CC(C)[C@H](C(=O)O[C@H](C#N)c1cccc(Oc2ccccc2)c1)c1ccc(Cl)cc1` [Esfenvalerate], the “max_med (maximum median response)” value was -0.2527. As for `COP(=S)(OC)Oc1ccc(SC)c(C)c1` [Fenthion], the “max_med (maximum median response)” value worked out at 20.1632 and the “hill_tp (Hill model top)” value amounted to 17.5948. On the same counts, the results for `CC(C)C(C(=O)OC(C#N)c1cccc(Oc2ccccc2)c1)c1ccc(Cl)cc1` (centres unmarked) [Fenvalerate] are 17.5112 and 13.0316. The matching figures for `CC(C)Oc1cccc(NC(=O)c2ccccc2C(F)(F)F)c1` [Flutolanil]: 9.82 and 12.8643. Turning to `CCCCCC(=O)O[C@]1(C(C)=O)CC[C@H]2[C@@H]3CCC4=CC(=O)CC[C@]4(C)[C@H]3CC[C@@]21C` [Hydroxyprogesterone caproate], the “max_med (maximum median response)” value is given as -5.885.

Consider `O=c1c(O)c(-c2ccc(O)cc2)oc2cc(O)cc(O)c12` [Kaempferol], for which the “max_med (maximum median response)” value worked out at 36.6036 and the “hill_tp (Hill model top)” value is reported as 30.9927. With `COCC(=O)N(c1c(C)cccc1C)C(C)C(=O)OC` (centres unmarked) [Metalaxyl], the “max_med (maximum median response)” value is 11.6523 and the “hill_tp (Hill model top)” value turned out to be 11.8758. `CCc1cccc(C)c1N(C(=O)CCl)C(C)COC` (centres unmarked) [Metolachlor]: the “max_med (maximum median response)” value is listed as 26.908 and the “hill_tp (Hill model top)” value is listed as 20.923. Take `CSc1nnc(C(C)(C)C)c(=O)n1N` [Metribuzin]: the “max_med (maximum median response)” value is 29.1814 and the “hill_tp (Hill model top)” value amounted to 43.0001.

Regarding `CCCCC(CC)COC(=O)c1ccccc1C(=O)O` (centres unmarked) [Mono(2-ethylhexyl) phthalate], the “max_med (maximum median response)” value turned out to be 10.2899 and the “hill_tp (Hill model top)” value turned out to be 5.023. As for `C[Si]1(C)O[Si](C)(C)O[Si](C)(C)O[Si](C)(C)O1` [Octamethylcyclotetrasiloxane], the “max_med (maximum median response)” value amounted to 28.4969 and the “hill_tp (Hill model top)” value is recorded as 38.8496. On the same counts, the results for `CCCCC(CC)CN1C(=O)[C@@H]2[C@H](C1=O)[C@@H]1C=C[C@H]2C1` (some centres unmarked) [Octylbicycloheptenedicarboximide] are 1.86 and 0. For the compound `Oc1c(Cl)c(Cl)c(Cl)c(Cl)c1Cl` [Pentachlorophenol], the “max_med (maximum median response)” value is 53.4588 and the “hill_tp (Hill model top)” value worked out at 63.2778. `CC(C)=CC1C(C(=O)OCc2cccc(Oc3ccccc3)c2)C1(C)C` (centres unmarked) [Phenothrin]: the “max_med (maximum median response)” value came to 11.6591 and the “hill_tp (Hill model top)” value is listed as 28.3579. As to `COP(=S)(OC)SCN1C(=O)c2ccccc2C1=O` [Phosmet], the “max_med (maximum median response)” value is 21.0825 and the “hill_tp (Hill model top)” value turned out to be 27.9412. On the same counts, the results for `C#CC(C)(C)NC(=O)c1cc(Cl)cc(Cl)c1` [Propyzamide] are 10.1701 and 0.

As for `O=C(c1ccc(OCCN2CCCCC2)cc1)c1c(-c2ccc(O)cc2)sc2cc(O)ccc12` [Raloxifene hydrochloride], the “max_med (maximum median response)” value was 99.7657. Consider `CC(C)(C)C(O)(CCc1ccc(Cl)cc1)Cn1cncn1` (centres unmarked) [Tebuconazole], for which the “max_med (maximum median response)” value was determined as 20.78 and the “hill_tp (Hill model top)” value is 45.6531. The matching figures for `CCC[CH2][Sn]([Cl])([CH2]CCC)[CH2]CCC` [Tributylchlorostannane]: 99.8606 and 99.7567. Turning to `Clc1ccc(Cl)cc1` [p-Dichlorobenzene], the “max_med (maximum median response)” value worked out at 4.77. Regarding Abamectin, the “max_med (maximum median response)” value turned out to be 81.1222.
